What is called Km is the concentration of substrate that gives half-maximal velocity.

What all share (conditions): anti-Flag purified enzyme, less than 10% of activity recovered on purification, assay buffer: 0.1 mM pyridoxal phosphate, 1 mM dithiothreitol, 37°C
The target of one data set is T1, xlODC1 (Xenopus laevis, UniProt P27120).
T1 construct: gene odc1-a
T1 sequence (P27120 1-460): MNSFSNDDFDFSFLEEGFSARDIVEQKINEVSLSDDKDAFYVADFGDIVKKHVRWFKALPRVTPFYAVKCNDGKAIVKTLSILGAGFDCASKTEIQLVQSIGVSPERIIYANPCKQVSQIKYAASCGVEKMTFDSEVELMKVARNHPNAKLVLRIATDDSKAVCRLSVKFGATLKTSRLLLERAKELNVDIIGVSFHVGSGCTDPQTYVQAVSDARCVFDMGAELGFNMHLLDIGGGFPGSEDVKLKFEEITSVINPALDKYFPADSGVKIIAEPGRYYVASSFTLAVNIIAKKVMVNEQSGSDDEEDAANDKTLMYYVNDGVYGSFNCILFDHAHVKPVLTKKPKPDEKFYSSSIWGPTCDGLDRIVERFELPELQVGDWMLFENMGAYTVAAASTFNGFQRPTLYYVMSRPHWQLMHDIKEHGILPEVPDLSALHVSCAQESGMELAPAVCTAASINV
The data set is described as follows: decarboxylase activity, Michaelis-Menten fit. Type of data set: biochemical.

Substrate in the data set “purified protein”: NCCC[C@H](N)C(=O)O
Briefly: purified protein.

Substrate in data set [1]: NCCCC[C@H](N)C(=O)O
Briefly: decarboxylase activity, Michaelis-Menten fit. Type of data set: biochemical, Xenopus laevis.

Like-named read-outs stand apart in the source and are kept apart here.

With `NCCC[C@H](N)C(=O)O` [L-ornithine], the Km at xlODC1 (read-out: Km^Orn) is 0.103 ± 0.027 mM.
As to `NCCCC[C@H](N)C(=O)O` [L-lysine], on xlODC1 (unit inferred, mM from, read-out: Km^Lys), the Km was 34.9 ± 6.1 mM.

B1: xlAZIN2 (xlODC2, xlLDC, xlLODC) (Xenopus laevis) (protein)
chain: MQGYIQESDFNLVEEGFLARDLMEEIINEVSQTEDRDAFFVADLGDVVRKHLRFLKALPRVKPFYAVKCNSSKGVVKILAELGAGFDCASKTEIELVQDVGVAPERIIYANPCKQISQIKYAAKNGVQMMTFDNEVELSKVSRSHPNARMVLRIATDDSKSSARLSVKFGAPLKSCRRLLEMAKNLSVDVIGVSFHVGSGCTDSKAYTQAISDARLVFEMASEFGYKMWLLDIGGGFPGTEDSKIRFEEIAGVINPALDMYFPESSDVQIIAEPGRYYVASAFSLAVNVIAKKEVEHSVSDDEENESSKSIMYYVNDGVYGSFNCLVFDHAHPKPILHKKPSPDQPLYTSSLWGPTCDGLDQIAERVQLPELHVGDWLLFENMGAYTIAASSNFNGFQQSPVHYAMPRAAWKAVQLLQRGLQQTEEKENVCTPMSCGWEISDSLCFTRTFAATSII
For the molecule B1, the values for the Km (in the data set “purified protein”; in data set [1]) were 3.08 ± 0.81 mM and 0.807 ± 0.102 mM, respectively.
